According to patent US20250235543A1, “MODIFIED PROTEINS AND PROTEIN DEGRADERS” (Cullgen (Shanghai), Inc., priority 2021, published 2025):

Assays:
Format in all cases: cell-based
MDA-MB-157 = assay: Cell viability assay, MDA-MB-157; details: Homo sapiens, 72 h; MDA-MB-157, TNBC, 3 days; read-out: Cellular Anti-proliferation activity (IC50)
Description: (§1) Cells were treated with CDK4/6 inhibitors palbociclib, ribociclib, or abemaciclib, or heterobifunctional compounds CPD-002 or CPD-031 following a 9-point serial dilution for 3 days.
(§2) Cells were seeded at a density of 2,000-5,000 cells per well in 96-well assay plates and treated with test compounds following a 10-point serial dilution for 3-6 days. Cell viability was determined using the CellTiter-Lumi assay kit according to the manufacturer's instructions. The dose-response curves were determined and IC50 values were calculated using the GraphPad Prism software following a nonlinear regression (least squares fit) method. Data presented was mean±standard deviation (SD) unless otherwise indicated.

NCI-H522 = assay: Cell viability assay, NCI-H522; details: Homo sapiens, 72 h; NCI-H522, NSCLC, 3 days; read-out: Cellular Anti-proliferation activity (IC50)
Description: as §1, §2

[1] = test system: cyclin D1, cyclin D2, cyclin D3; assay: Immunoblot of cyclin D protein levels in Calu-1 (and BT-549) cells; details: for cyclin D downregulation effect after pre-treatment with MG-132, MLN4924 or TAK-243: proteasome, cullin E3 ligase or UAE inhibitor pre-treatment; for DC50 / reduction of cyclin D1, cyclin D2, and cyclin D3 protein levels: immunoblot, dose range; for DC50: 16 hours treatment; for reduction of cyclin D1, cyclin D2, and cyclin D3 protein levels: Calu-1 / BT-549 cells, 16 hours
Description: Specific exemplary heterobifunctional compounds were characterized in Calu-1, BT-549 and other cells. Cells that express cyclin D1-3 and CDK4/6 proteins were treated with heterobifunctional compounds disclosed herein at indicated concentrations for 16 hours. Cells were collected, lysed and subject to immunoblotting using an antibody specific to cyclin D1, cyclin D2, cyclin D3, CDK4, CDK6 or phosphorylated R^b proteins. Tubulin or GAPDH was used as the loading control. DMSO treatment was used as the negative control.
In a time-course study, Calu-1 cells were treated with 500 nM CPD-002, or 100 nM CPD-031 for indicated period of time prior to immunoblotting (FIG. 4A-4B).
The heterobifunctional compound-mediated degradation was dependent on the ubiquitin-proteasome system and cullin E3 ligase. […] In addition, DDB1 E3 ligase was critical for the degrader-induced cyclin D downregulation. Depletion of DDB1 using CRISPR-Cas9 technology attenuated the cyclin D degradation induced by CPD-031 (FIG. 5C).
To verify that heterobifunctional compound-mediated degradation is dependent on the binding to CDK4-cyclin D complex, we designed three negative control compounds, CPD-042, CPD-049 and CPD-380, which are derived from CPD-002 CPD-031 and CPD-343, respectively. These three control compounds bear the same DDB1 ligand and linker as their corresponding active heterobifunctional compounds but with modified warheads to impair the binding of the control compounds to CDK4. […] However, the binding to CDK4 is not sufficient for cyclin D degradation. Two cereblon (CRBN)-recruiting reference heterobifunctional compounds, CP-10 (Su, J Med Chem, 2019; CAS No.: 2366268-80-4) and BSJ-03-123 (Brand, Cell Chem Biol, 2019; CAS No.: 2361493-16-3) were analyzed in Calu-1 cells.

BT-549 = assay: Cell viability assay, BT-549; details: Homo sapiens, 72 h; BT-549, TNBC, 3 days; read-out: Cellular Anti-proliferation activity (IC50)
Description: as §1, §2

CDK4 = molecular target: T1, CDK4 (Homo sapiens, UniProt P11802); assay: CDK4 percentage degradation in Calu-1 cells (immunoblotting); details: Calu-1 cells, 200 nM, 16 hours; read-out: CDK4 Degradation (200 nM)
T1 construct: endogenous in cells; host or cells: Calu-1
Summary of the method: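 Cultured cells were rinsed once in cold PBS and lysed in cold RIPA buffer containing protease and phosphatase inhibitors, with gentle agitation at 4° C. for 30 min. Lysates were centrifuged at 13,000 rpm for 10 min at 4° C., and protein was quantified by BCA. Samples were then separated by SDS-PAGE, detected with ECL, and the CDK4 bands quantified in Image Lab.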

OVCAR3 = assay: Cell viability assay, OVCAR3; details: Homo sapiens, OVCAR-3, 72 h; OVCAR3, OC, 3 days; read-out: Cellular Anti-proliferation activity (IC50)
Description: as §1, §2

KURAMOCHI = assay: Cell viability assay, KURAMOCHI; details: 72 h, OC, 3 days, read-out: Cellular Anti-proliferation activity (IC50)
Description: as §1, §2

[2] = time-course, Calu-1 cells, 500 nM CPD-002

T1 sequence (P11802 2-303 limits assumed): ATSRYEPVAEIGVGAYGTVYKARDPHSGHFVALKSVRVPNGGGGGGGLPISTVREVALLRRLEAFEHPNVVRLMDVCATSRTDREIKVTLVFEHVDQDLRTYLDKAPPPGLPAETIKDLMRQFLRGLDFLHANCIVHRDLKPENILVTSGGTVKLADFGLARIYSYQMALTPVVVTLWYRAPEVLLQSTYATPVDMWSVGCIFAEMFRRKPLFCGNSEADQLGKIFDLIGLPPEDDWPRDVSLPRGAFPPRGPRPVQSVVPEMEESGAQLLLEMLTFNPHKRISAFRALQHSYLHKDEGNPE
T1 sequence (P24385 whole entry partner): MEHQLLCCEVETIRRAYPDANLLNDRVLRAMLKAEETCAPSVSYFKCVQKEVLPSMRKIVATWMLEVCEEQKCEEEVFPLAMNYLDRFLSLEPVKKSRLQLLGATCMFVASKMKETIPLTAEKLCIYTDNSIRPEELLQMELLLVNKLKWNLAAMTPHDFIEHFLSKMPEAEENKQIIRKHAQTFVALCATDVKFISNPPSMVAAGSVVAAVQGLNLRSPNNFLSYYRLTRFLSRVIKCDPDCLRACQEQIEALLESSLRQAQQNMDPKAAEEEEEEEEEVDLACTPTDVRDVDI
T1 sequence (Q16531 2-1140 limits assumed, further chain): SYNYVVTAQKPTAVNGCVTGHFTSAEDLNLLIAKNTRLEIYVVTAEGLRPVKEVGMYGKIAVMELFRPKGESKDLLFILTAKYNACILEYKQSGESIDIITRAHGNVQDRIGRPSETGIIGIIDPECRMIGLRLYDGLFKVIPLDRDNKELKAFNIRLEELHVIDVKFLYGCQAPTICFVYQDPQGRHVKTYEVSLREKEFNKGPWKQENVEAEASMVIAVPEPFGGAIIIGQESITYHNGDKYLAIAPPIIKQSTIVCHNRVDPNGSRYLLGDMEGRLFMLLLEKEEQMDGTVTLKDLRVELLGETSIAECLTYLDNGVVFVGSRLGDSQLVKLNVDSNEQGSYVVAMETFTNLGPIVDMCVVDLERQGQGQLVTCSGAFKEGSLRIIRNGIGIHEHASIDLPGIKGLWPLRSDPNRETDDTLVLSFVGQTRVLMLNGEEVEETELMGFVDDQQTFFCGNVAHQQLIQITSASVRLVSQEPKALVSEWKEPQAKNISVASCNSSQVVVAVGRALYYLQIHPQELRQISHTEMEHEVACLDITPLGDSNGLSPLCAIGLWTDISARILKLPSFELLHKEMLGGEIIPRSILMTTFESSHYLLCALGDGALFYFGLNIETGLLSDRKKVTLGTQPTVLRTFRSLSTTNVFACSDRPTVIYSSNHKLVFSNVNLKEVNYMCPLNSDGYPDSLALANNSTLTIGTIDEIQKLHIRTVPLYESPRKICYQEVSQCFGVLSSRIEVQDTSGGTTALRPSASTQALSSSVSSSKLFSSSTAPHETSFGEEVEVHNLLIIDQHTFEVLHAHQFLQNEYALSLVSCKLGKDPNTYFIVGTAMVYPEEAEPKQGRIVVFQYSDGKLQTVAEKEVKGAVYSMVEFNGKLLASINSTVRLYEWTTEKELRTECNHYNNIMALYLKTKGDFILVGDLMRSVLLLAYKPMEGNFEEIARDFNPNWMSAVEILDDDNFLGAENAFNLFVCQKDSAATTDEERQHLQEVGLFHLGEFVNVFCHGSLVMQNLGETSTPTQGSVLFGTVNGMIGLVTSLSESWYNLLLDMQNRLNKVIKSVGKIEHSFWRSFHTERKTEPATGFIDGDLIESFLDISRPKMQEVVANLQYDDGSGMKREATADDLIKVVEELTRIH

Row | IC50 (MDA-MB-157) | IC50 (NCI-H522) | DC50 [1] | IC50 (BT-549) | inhibition at 0.2 µM (CDK4) | IC50 (OVCAR3) | Compound | cyclin D downregulation effect after pre-treatment with MG-132, MLN4924 or TAK-243 ([1]; Calu-1 cells) | reduction of cyclin D1, cyclin D2, and cyclin D3 protein levels [1] | time to complete degradation of cyclin D proteins [1, 2] | time to significant degradation of cyclin D proteins [1, 2] | IC50 (KURAMOCHI) | cyclin D3 versus cyclin D1 and D2 degradation, time-course ([1]; Calu-1 cells, 100 nM CPD-031)
1 | 151 nM | 638 nM | < 50 nM | 690 nM | 50 to 80% | 107 nM | CC(=O)c1c(C)c2cnc(Nc3ccc(N4CCN(CC(=O)NCCOCCOCCOCCOCCOCCNc5ccc(C(=O)Nc6ncc(C)s6)c(C)c5)CC4)cn3)nc2n(C2CCCC2)c1=O [CPD-002, 4-((1-(4-(6-((6-Acetyl-8-cyclopentyl-5-methyl-7-oxo-7,8-dihydropyrido[2,3-d]pyrimidin-2-yl)amino)pyridin-3-yl)piperazin-1-yl)-2-oxo-6,9,12,15,18-pentaoxa-3-azaicosan-20-yl)amino)-2-methyl-N-(5-methylthiazol-2-yl)benzamide] | totally diminished | particularly effective | ≤ 2 h | ≤ 0.5 h | 920 nM | –
2 | 28 nM | 155 nM | < 20 nM | 110 nM | > 80% | 39 nM | CC(=O)c1c(C)c2cnc(Nc3ccc(N4CCN(CC(=O)NCCOCCOCCOCCOCCOCCNc5ccc(C(=O)Nc6nc(C)c(C)s6)c(C)c5)CC4)cn3)nc2n(C2CCCC2)c1=O [CPD-031, 4-((1-(4-(6-((6-Acetyl-8-cyclopentyl-5-methyl-7-oxo-7,8-dihydropyrido[2,3-d]pyrimidin-2-yl)amino)pyridin-3-yl)piperazin-1-yl)-2-oxo-6,9,12,15,18-pentaoxa-3-azaicosan-20-yl)amino)-N-(4,5-dimethylthiazol-2-yl)-2-methylbenzamide] | totally diminished | particularly effective | – | – | 190 nM | slower cyclin D3 degradation compared to cyclin D1 and D2 degradation
